Target: ER (Homo sapiens (Human), UniProt P03372)
Test: Western blot analysis (Compounds B1-B278)
Type: cell-based
Conditions: ER degradation by traditional Western blot; DC50 classes
How it was run: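 Relative target-protein levels come from densitometry of immunoblots, normalized to GAPDH. Lysates from treated cells were prepared in RIPA buffer (pH 7.6) containing protease inhibitors, and equal protein amounts, checked by BCA, were separated on 10% gels and blotted onto PVDF.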

Chain of ER (P03372 whole entry): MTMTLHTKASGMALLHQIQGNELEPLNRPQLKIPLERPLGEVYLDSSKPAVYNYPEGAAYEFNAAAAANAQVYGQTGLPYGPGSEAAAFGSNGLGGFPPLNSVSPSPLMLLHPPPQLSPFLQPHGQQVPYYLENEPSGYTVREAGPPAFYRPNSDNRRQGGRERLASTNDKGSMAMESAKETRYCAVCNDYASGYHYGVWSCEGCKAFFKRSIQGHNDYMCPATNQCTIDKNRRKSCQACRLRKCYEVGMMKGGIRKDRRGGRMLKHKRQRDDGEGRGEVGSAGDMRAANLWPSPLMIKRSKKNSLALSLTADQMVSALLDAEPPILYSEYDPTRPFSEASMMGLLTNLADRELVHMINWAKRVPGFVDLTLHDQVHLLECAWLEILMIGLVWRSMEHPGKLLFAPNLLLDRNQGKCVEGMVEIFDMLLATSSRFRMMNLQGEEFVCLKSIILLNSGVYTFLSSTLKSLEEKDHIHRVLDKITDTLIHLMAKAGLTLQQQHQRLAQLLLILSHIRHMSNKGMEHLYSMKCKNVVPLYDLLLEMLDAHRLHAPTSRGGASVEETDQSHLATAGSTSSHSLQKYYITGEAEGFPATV

Structure (SMILES) | Traditional Western Degradation Potency
C[C@@H]1Cc2c([nH]c3ccccc23)[C@@H](c2ccc(C3=CCC(C(=O)N4CCC(N5Cc6cc7c(cc6C5)C(=O)N(C5CCC(=O)NC5=O)C7=O)CC4)CC3)nc2)N1CC(F)F (stereo partly drawn) [Compound B235, 6-(1-(4-(5-((1R,3R)-2-(2,2-difluoroethyl)-3-methyl-2,3,4,9-tetrahydro-1H-pyrido[3,4-b]indol-1-yl)pyridin-2-yl)cyclohex-3-ene-1-carbonyl)piperidin-4-yl)-2-(2,6-dioxopiperidin-3-yl)-6,7-dihydropyrrolo[3,4-f]isoindole-1,3(2H,5H)-dione] | C (“C”: >100 nM)
C[C@@H]1Cc2c([nH]c3ccccc23)[C@@H](c2ccc(C3=CCC(C(=O)N4CCC(N5Cc6cc7c(cc6C5)C(=O)N(C5CCC(=O)NC5=O)C7=O)CC4)CC3)cc2)N1CC(F)F (stereo partly drawn) [Compound B237, 6-(1-(4′-((1R,3R)-2-(2,2-difluoroethyl)-3-methyl-2,3,4,9-tetrahydro-1H-pyrido[3,4-b]indol-1-yl)-2,3,4,5-tetrahydro-[1,1′-biphenyl]-4-carbonyl)piperidin-4-yl)-2-(2,6-dioxopiperidin-3-yl)-6,7-dihydropyrrolo[3,4-f]isoindole-1,3(2H,5H)-dione] | B (“B”: 10-100 nM)
C[C@@H]1Cc2c([nH]c3ccccc23)[C@@H](c2ccc(C3CCC(C(=O)N4CCC(N5Cc6cc7c(cc6C5)C(=O)N(C5CCC(=O)NC5=O)C7=O)CC4)CC3)nc2)N1CC(F)F (stereo partly drawn) [Compound B238, 6-(1-(4-(5-((1R,3R)-2-(2,2-difluoroethyl)-3-methyl-2,3,4,9-tetrahydro-1H-pyrido[3,4-b]indol-1-yl)pyridin-2-yl)cyclohexane-1-carbonyl)piperidin-4-yl)-2-(2,6-dioxopiperidin-3-yl)-6,7-dihydropyrrolo[3,4-f]isoindole-1,3(2H,5H)-dione] | C (“C”: >100 nM)
C[C@@H]1Cc2c([nH]c3ccccc23)[C@@H](c2ccc(C3CCC(C(=O)N4CCC(N5Cc6cc7c(cc6C5)C(=O)N(C5CCC(=O)NC5=O)C7=O)CC4)CC3)c(F)c2)N1CC(F)F (stereo partly drawn) [Compound B239, 6-(1-(4-(4-((1R,3R)-2-(2,2-difluoroethyl)-3-methyl-2,3,4,9-tetrahydro-1H-pyrido[3,4-b]indol-1-yl)-2-fluorophenyl)cyclohexane-1-carbonyl)piperidin-4-yl)-2-(2,6-dioxopiperidin-3-yl)-6,7-dihydropyrrolo[3,4-f]isoindole-1,3(2H,5H)-dione] | B (“B”: 10-100 nM)
C[C@@H]1Cc2c([nH]c3ccccc23)[C@@H](c2c(F)cc(C3=CCC4(CC3)CCN(C(=O)CN3Cc5cc6c(cc5C3)C(=O)N(C3CCC(=O)NC3=O)C6=O)CC4)cc2F)N1CC(F)F (stereo partly drawn) [Compound B240, 6-(2-(9-(4-((1R,3R)-2-(2,2-difluoroethyl)-3-methyl-2,3,4,9-tetrahydro-1H-pyrido[3,4-b]indol-1-yl)-3,5-difluorophenyl)-3-azaspiro[5.5]undec-8-en-3-yl)-2-oxoethyl)-2-(2,6-dioxopiperidin-3-yl)-6,7-dihydropyrrolo[3,4-f]isoindole-1,3(2H,5H)-dione] | B (“B”: 10-100 nM)
C[C@@H]1Cc2c([nH]c3ccccc23)[C@@H](c2ccc(C3=CCC4(CC3)CCN(C(=O)CN3Cc5cc6c(cc5C3)C(=O)N(C3CCC(=O)NC3=O)C6=O)CC4)cc2F)N1CC(F)F (stereo partly drawn) [Compound B241, 6-(2-(9-(4-((1R,3R)-2-(2,2-difluoroethyl)-3-methyl-2,3,4,9-tetrahydro-1H-pyrido[3,4-b]indol-1-yl)-3-fluorophenyl)-3-azaspiro[5.5]undec-8-en-3-yl)-2-oxoethyl)-2-(2,6-dioxopiperidin-3-yl)-6,7-dihydropyrrolo[3,4-f]isoindole-1,3(2H,5H)-dione] | C (“C”: >100 nM)
C[C@@H]1Cc2c([nH]c3ccccc23)[C@@H](c2ccc(C3CCC4(CC3)CCN(C(=O)CN3Cc5cc6c(cc5C3)C(=O)N(C3CCC(=O)NC3=O)C6=O)CC4)cc2F)N1CC(F)F (stereo partly drawn) [Compound B243, 6-(2-(9-(4-((1R,3R)-2-(2,2-difluoroethyl)-3-methyl-2,3,4,9-tetrahydro-1H-pyrido[3,4-b]indol-1-yl)-3-fluorophenyl)-3-azaspiro[5.5]undecan-3-yl)-2-oxoethyl)-2-(2,6-dioxopiperidin-3-yl)-6,7-dihydropyrrolo[3,4-f]isoindole-1,3(2H,5H)-dione] | C (“C”: >100 nM)
C[C@@H]1Cc2c([nH]c3ccccc23)[C@@H](c2c(F)cc(C3CCC4(CC3)CCN(C(=O)CN3Cc5cc6c(cc5C3)C(=O)N(C3CCC(=O)NC3=O)C6=O)CC4)cc2F)N1CC(F)F (stereo partly drawn) [Compound B244, 6-(2-(9-(4-((1R,3R)-2-(2,2-difluoroethyl)-3-methyl-2,3,4,9-tetrahydro-1H-pyrido[3,4-b]indol-1-yl)-3,5-difluorophenyl)-3-azaspiro[5.5]undecan-3-yl)-2-oxoethyl)-2-(2,6-dioxopiperidin-3-yl)-6,7-dihydropyrrolo[3,4-f]isoindole-1,3(2H,5H)-dione] | C (“C”: >100 nM)

Results, then the compound that gave them:

Traditional Western Degradation Potency | Structure (SMILES)
B (“B”: 10-100 nM) | C[C@@H]1Cc2c([nH]c3ccccc23)[C@@H](c2cnc(C3=CCC(C(=O)N4CCC(N5Cc6cc7c(cc6C5)C(=O)N(C5CCC(=O)NC5=O)C7=O)CC4)CC3)nc2)N1CC(F)F (stereo partly drawn) [Compound B236, 6-(1-(4-(5-((1R,3R)-2-(2,2-difluoroethyl)-3-methyl-2,3,4,9-tetrahydro-1H-pyrido[3,4-b]indol-1-yl)pyrimidin-2-yl)cyclohex-3-ene-1-carbonyl)piperidin-4-yl)-2-(2,6-dioxopiperidin-3-yl)-6,7-dihydropyrrolo[3,4-f]isoindole-1,3(2H,5H)-dione]
B (“B”: 10-100 nM) | C[C@@H]1Cc2c([nH]c3ccccc23)[C@@H](c2ccc(C3=CCC(C(=O)N4CCC(N5Cc6cc7c(cc6C5)C(=O)N(C5CCC(=O)NC5=O)C7=O)CC4)CC3)cc2F)N1CC(C)(C)F (stereo partly drawn) [Compound B245, 2-(2,6-dioxopiperidin-3-yl)-6-(1-(3′-fluoro-4′-((1R,3R)-2-(2-fluoro-2-methylpropyl)-3-methyl-2,3,4,9-tetrahydro-1H-pyrido[3,4-b]indol-1-yl)-2,3,4,5-tetrahydro-[1,1′-biphenyl]-4-carbonyl)piperidin-4-yl)-6,7-dihydropyrrolo[3,4-f]isoindole-1,3(2H,5H)-dione]
C (“C”: >100 nM) | C[C@@H]1Cc2c([nH]c3ccccc23)[C@@H](c2ccc(C3=CCC(C(=O)N4CCC(N5Cc6cc7c(cc6C5)C(=O)N(C5CCC(=O)NC5=O)C7=O)CC4)CC3)cc2F)N1CC(C)(F)F (stereo partly drawn) [Compound B246, 6-(1-(4′-((1R,3R)-2-(2,2-difluoropropyl)-3-methyl-2,3,4,9-tetrahydro-1H-pyrido[3,4-b]indol-1-yl)-3′-fluoro-2,3,4,5-tetrahydro-[1,1′-biphenyl]-4-carbonyl)piperidin-4-yl)-2-(2,6-dioxopiperidin-3-yl)-6,7-dihydropyrrolo[3,4-f]isoindole-1,3(2H,5H)-dione]
C (“C”: >100 nM) | C[C@@H]1Cc2c([nH]c3ccccc23)[C@@H](c2ncc(C3=CCC(C(=O)N4CCC(N5Cc6cc7c(cc6C5)C(=O)N(C5CCC(=O)NC5=O)C7=O)CC4)CC3)cc2F)N1CC(C)(F)F (stereo partly drawn) [Compound B247, 6-(1-(4-(6-((1S,3R)-2-(2,2-difluoropropyl)-3-methyl-2,3,4,9-tetrahydro-1H-pyrido[3,4-b]indol-1-yl)-5-fluoropyridin-3-yl)cyclohex-3-ene-1-carbonyl)piperidin-4-yl)-2-(2,6-dioxopiperidin-3-yl)-6,7-dihydropyrrolo[3,4-f]isoindole-1,3(2H,5H)-dione]
C (“C”: >100 nM) | C[C@@H]1Cc2c([nH]c3ccccc23)[C@@H](c2ncc(C3=CCC(C(=O)N4CCC(N5Cc6cc7c(cc6C5)C(=O)N(C5CCC(=O)NC5=O)C7=O)CC4)CC3)cc2F)N1CC(C)(C)F (stereo partly drawn) [Compound B248, 2-(2,6-dioxopiperidin-3-yl)-6-(1-(4-(5-fluoro-6-((1S,3R)-2-(2-fluoro-2-methylpropyl)-3-methyl-2,3,4,9-tetrahydro-1H-pyrido[3,4-b]indol-1-yl)pyridin-3-yl)cyclohex-3-ene-1-carbonyl)piperidin-4-yl)-6,7-dihydropyrrolo[3,4-f]isoindole-1,3(2H,5H)-dione]
C (“C”: >100 nM) | C[C@@H]1Cc2c([nH]c3ccccc23)[C@@H](c2c(F)cc(C3=CCC(C(=O)N4CCC(N5Cc6cc7c(cc6C5)C(=O)N(C5CCC(=O)NC5=O)C7=O)CC4)CC3)cc2F)N1CC1(F)CC1 (stereo partly drawn) [Compound B249, 6-(1-(3′,5′-difluoro-4′-((1R,3R)-2-((1-fluorocyclopropyl)methyl)-3-methyl-2,3,4,9-tetrahydro-1H-pyrido[3,4-b]indol-1-yl)-2,3,4,5-tetrahydro-[1,1′-biphenyl]-4-carbonyl)piperidin-4-yl)-2-(2,6-dioxopiperidin-3-yl)-6,7-dihydropyrrolo[3,4-f]isoindole-1,3(2H,5H)-dione]
C (“C”: >100 nM) | C[C@@H]1Cc2c([nH]c3ccccc23)[C@@H](c2ccc(C3=CCC(C(=O)N4CCC(N5Cc6cc7c(cc6C5)C(=O)N(C5CCC(=O)NC5=O)C7=O)CC4)CC3)cc2F)N1CC1(F)CC1 (stereo partly drawn) [Compound B250, 2-(2,6-dioxopiperidin-3-yl)-6-(1-(3′-fluoro-4′-((1R,3R)-2-((1-fluorocyclopropyl)methyl)-3-methyl-2,3,4,9-tetrahydro-1H-pyrido[3,4-b]indol-1-yl)-2,3,4,5-tetrahydro-[1,1′-biphenyl]-4-carbonyl)piperidin-4-yl)-6,7-dihydropyrrolo[3,4-f]isoindole-1,3(2H,5H)-dione]

Reference: US20260007681A1, “INDOLE DERIVATIVES AS ESTROGEN RECEPTOR DEGRADERS” (REGENTS OF THE UNIVERSITY OF MICHIGAN, priority 2022, published 2026)
